# Measured values from US11266662B2, “Ganaxolone for use in prophylaxis and treatment of postpartum depression” (Marinus Pharmaceuticals, Inc., priority 2018, dated 2022).
# Assay: Phase 2A study (Magnolia) in women with postpartum depression: ganaxolone plasma concentrations / pharmacokinetics
# Details: female, human, plasma; for AUC: iv
# Method: Approximately 200 women with PPD 18 to 45 years of age are screened to randomize up to 100 subjects across up to 6 cohorts. Approximately 10-30 subjects are randomized into each cohort. Randomized subjects receive the investigational product (IP), ganaxolone or matching placebo in a 1:1 ratio. In Cohorts 1-5 the IP is administered intravenously over 60 hours. In Cohort 6 the dosing is initiated with a 6-hour intravenous (IV) infusion followed by oral dosing for 28 days plus 3-day taper.
# Ganaxolone is infused at a rate of 4 mg/hr (16 ml/h of ganaxolone 0.25 mg/ml solution) for 48 hours and then, to minimize any risks for withdrawal or rebound of anxiety and depression symptoms, at a rate of 2 mg/hr for the next 12 hours. The infusion is stopped at 60 hours. Total of 9 subjects are dosed for this cohort.
# Ganaxolone is infused at a rate of 8 mg/hr (16 ml/h of ganaxolone 0.5 mg/ml solution) for 48 hours and then at a rate of 4 mg/hr for the next 12 hours. This dose is approximately double the expected plasma exposure as compared to Cohort 1 at steady state (Cohort 2 expected plasma concentration ˜100-120 ng/mL). The infusion is stopped at 60 hours.
# Twelve mg bolus of ganaxolone is initially given over 2 minutes followed by ganaxolone infusion at a rate of 12 mg/hr (24 ml/h of ganaxolone 0.5 mg/ml solution) for 48 hours. The rate is then reduced to 6 mg/hr for the next 12 hours, which is done to minimize any risks for withdrawal or rebound of anxiety and depression symptoms. The infusion is stopped at 60 hours.
# In this cohort dosing is initiated with ganaxolone infusion at a rate of 20 mg/hr (40 ml/h of ganaxolone 0.5 mg/ml solution or matching placebo) for 6 hours followed by ganaxolone 900 mg (four 225 mg capsules per dose) or matching placebo capsules given orally at dinner time for 28 days followed by a 3-day taper (three, two, and one 225 mg capsule(s) per day, respectively).
# This initial infusion is targeted to provide a fast onset of antidepressant activity by delivery of rapid plasma exposures to ganaxolone. Then, at dinner time of Day 1 the subjects take their first oral dose of ganaxolone 900 mg (four 225 mg capsules) or matching placebo (4 capsules). […] In previous studies, ganaxolone has been given up to a daily dose of 2000 mg, and at single doses of 1000 mg.
# Six samples are collected for pharmacokinetic analysis in Cohorts 1-5 and 12 samples in Cohort 6. […] Seven samples are collected during the inpatient phase of Cohort 6 (including 6 samples on Day 1) followed by collection of 5 samples during the outpatient phase during the study visits for a total of 12 samples in Cohort 6.
smiles,measurement,setting,value
"CC(=O)[C@H]1CC[C@H]2[C@@H]3CC[C@H]4C[C@](C)(O)CC[C@]4(C)[C@H]3CC[C@]12C [ganaxolone, 3α-hydroxy-3β-methyl-5α-pregnan-20-one]",concentration at 48 h,"intravenous, 260 μg/kg/hr, Mean average GNX Concentration, calculated for dose 260 μg/kg/hr, time 48 hr",304 ng/mL
same,AUC,"86 ug/kg, AUC12-24, calculated from Table 1C, dose 86 μg/kg/hr (row order of Table 1C)",1040 ng·h/mL
same,AUC,"86 ug/kg, AUC12-48, calculated from Table 1C, dose 86 μg/kg/hr (row order of Table 1C)",3340 ng·h/mL
same,AUC,"86 ug/kg, AUC24-48, calculated from Table 1C, dose 86 μg/kg/hr (row order of Table 1C)",2300 ng·h/mL
same,AUC,"150 ug/kg, AUC12-24, calculated from Table 1C, dose 150 μg/kg/hr (row order of Table 1C)",1810 ng·h/mL
same,AUC,"150 ug/kg, AUC12-48, calculated from Table 1C, dose 150 μg/kg/hr (row order of Table 1C)",5820 ng·h/mL
same,AUC,"150 ug/kg, AUC24-48, calculated from Table 1C, dose 150 μg/kg/hr (row order of Table 1C)",4010 ng·h/mL
same,AUC,"160 ug/kg, AUC12-24, calculated from Table 1C, dose 160 μg/kg/hr (row order of Table 1C)",1930 ng·h/mL
same,AUC,"160 ug/kg, AUC12-48, calculated from Table 1C, dose 160 μg/kg/hr (row order of Table 1C)",6210 ng·h/mL
same,AUC,"160 ug/kg, AUC24-48, calculated from Table 1C, dose 160 μg/kg/hr (row order of Table 1C)",4280 ng·h/mL
same,AUC,"170 ug/kg, AUC12-24, calculated from Table 1C, dose 170 μg/kg/hr (row order of Table 1C)",2050 ng·h/mL
same,AUC,"170 ug/kg, AUC12-48, calculated from Table 1C, dose 170 μg/kg/hr (row order of Table 1C)",6600 ng·h/mL
same,AUC,"170 ug/kg, AUC24-48, calculated from Table 1C, dose 170 μg/kg/hr (row order of Table 1C)",4550 ng·h/mL
same,AUC,"180 ug/kg, AUC12-24, calculated from Table 1C, dose 180 μg/kg/hr (row order of Table 1C)",2170 ng·h/mL
same,AUC,"180 ug/kg, AUC12-48, calculated from Table 1C, dose 180 μg/kg/hr (row order of Table 1C)",6980 ng·h/mL
same,AUC,"180 ug/kg, AUC24-48, calculated from Table 1C, dose 180 μg/kg/hr (row order of Table 1C)",4820 ng·h/mL
same,AUC,"190 ug/kg, AUC12-24, calculated from Table 1C, dose 190 μg/kg/hr (row order of Table 1C)",2290 ng·h/mL
same,AUC,"190 ug/kg, AUC12-48, calculated from Table 1C, dose 190 μg/kg/hr (row order of Table 1C)",7370 ng·h/mL
same,AUC,"190 ug/kg, AUC24-48, calculated from Table 1C, dose 190 μg/kg/hr (row order of Table 1C)",5080 ng·h/mL
same,AUC,"200 ug/kg, AUC12-24, calculated from Table 1C, dose 200 μg/kg/hr (row order of Table 1C)",2410 ng·h/mL
same,AUC,"200 ug/kg, AUC12-48, calculated from Table 1C, dose 200 μg/kg/hr (row order of Table 1C)",7760 ng·h/mL
